{"source": "patent US7534768B2", "about": "“Treatment of DNA viral infections” (Henderson Morely Research and Development Ltd., priority 2000, dated 2009)", "key": {"[1]": {"system": "Type 1 herpes simplex strain HFEM", "assay": "Inhibition of hsv1 in infected Vero cells (Example 1)", "assay_type": "cell-based, herpes simplex virus", "settings": "Human alphaherpesvirus 1, Vero; for inhibition at 1000 µg/mL: frusemide 1 mg/ml, digoxin 30 mcg/ml", "protocol": ". Culture and assay methods follow those described by Lennette and Schmidt (1979) for herpes simplex virus and Vero cells with minor modifications.\nType 1 herpes simplex strain HFEM is a derivative of the Rockerfeller strain HF (Wildy 1955), and Type 2 herpes simplex strain 3345, a penile isolate (Skinner et al 1977) were used as prototype strains. These prototypes were stored at −80° C. until needed.\nAfrican Green Monkey kidney cells (vero) were obtained from the National Institute of Biological Standards and Control UK and were used as the only cell line for all experiments in the examples.\nCells and viruses were maintained on Glasgows modified medium supplemented with 10% foetal bovine serum."}, "[2]": {"settings": "cited from earlier work"}, "[3]": {"system": "type 2 herpes simplex strain 3345", "assay": "Inhibition of hsv2 replication in African green monkey kidney cells (Example 3)", "assay_type": "cell-based, herpes simplex virus", "settings": "for inhibition at 15 µg/mL: Digoxin 15 mcg/ml; for inhibition at 15 µg/mL / inhibition at 30 µg/mL: Frusemide 0 mg/ml; for inhibition at 30 µg/mL: Digoxin 30 mcg/ml; for Inhibition of virus replication / inhibition at 500 µg/mL: Digoxin 0 mcg/ml; for Inhibition of virus replication: Frusemide 1.0 mg.ml; for inhibition at 500 µg/mL: Frusemide 0.5 mg/ml, read-out: Inhibition of virus replication", "from_the_text": "The compositions were applied to different types of vero cells (African green monkey kidney cells and […]) and infected with type 2 herpes simplex virus (strains 3345 and 180) at low, intermediate, and high multiplicities of infection (M0I). Inhibition of virus replication was scored on the scale:\nThe following results were obtained using African green monkey kidney cells and type 2 herpes simplex strain 3345: […]"}, "[4]": {"settings": "Human alphaherpesvirus 2, read-out: Inhibition of virus replication, HIGH M0I HSV2"}, "[5]": {"settings": "Human alphaherpesvirus 2, read-out: Inhibition of virus replication, INT. M0I HSV2"}, "[6]": {"settings": "Human alphaherpesvirus 2, read-out: Inhibition of virus replication, LOW M0I HSV2"}}, "note": "Like-named read-outs stand apart in the source and are kept apart here.", "data": [{"smiles": "C[C@H]1O[C@@H](O[C@H]2[C@@H](O)C[C@H](O[C@H]3[C@@H](O)C[C@H](O[C@H]4CC[C@@]5(C)[C@H](CC[C@@H]6[C@@H]5C[C@@H](O)[C@]5(C)[C@@H](C7=CC(=O)OC7)CC[C@]65O)C4)O[C@@H]3C)O[C@@H]2C)C[C@H](O)[C@@H]1O", "note": "[digoxin]", "values": [{"measurement": "inhibition at 30 µg/mL", "setting": "[1]; read-out: Inhibition of hsv1, Multiplicity of infection High, frusemide 1 mg/ml, digoxin 30 mcg/ml", "result": 0, "unit": "%"}, {"measurement": "inhibition at 30 µg/mL", "setting": "[1]; read-out: Inhibition of hsv1, Multiplicity of infection Low, frusemide 1 mg/ml, digoxin 30 mcg/ml", "result": 40, "unit": "%"}, {"measurement": "inhibition at 30 µg/mL", "setting": "[1]; read-out: Inhibition of hsv1, Multiplicity of infection Medium, frusemide 1 mg/ml, digoxin 30 mcg/ml", "result": 20, "unit": "%"}, {"measurement": "solubility", "setting": "[2]; in diluted (50%) alcohol and in chloroform", "result": "slightly soluble"}, {"measurement": "solubility", "setting": "[2]; in pyridine", "result": "freely soluble"}, {"measurement": "solubility", "setting": "[2]; in water and in ether", "result": "practically insoluble"}, {"measurement": "inhibition at 15 µg/mL", "setting": "[3]; [4]", "result": 0, "unit": "%"}, {"measurement": "inhibition at 30 µg/mL", "setting": "[3]; [4]", "result": 0, "unit": "%"}, {"measurement": "inhibition at 15 µg/mL", "setting": "[3]; [5]", "result": 0, "unit": "%"}, {"measurement": "inhibition at 30 µg/mL", "setting": "[3]; [5]", "result": 20, "unit": "%"}, {"measurement": "inhibition at 15 µg/mL", "setting": "[3]; [6]", "result": 0, "unit": "%"}, {"measurement": "inhibition at 30 µg/mL", "setting": "[3]; [6]", "result": 60, "unit": "%"}]}, {"smiles": "NS(=O)(=O)c1cc(C(=O)O)c(NCc2ccco2)cc1Cl", "note": "[frusemide, 4-chloro-N-furfuryl-5-sulfamoylanthranilic acid]", "values": [{"measurement": "inhibition at 1000 µg/mL", "setting": "[1]; Multiplicity of infection High", "result": 0, "unit": "%"}, {"measurement": "inhibition at 1000 µg/mL", "setting": "[1]; Multiplicity of infection Low", "result": 20, "unit": "%"}, {"measurement": "inhibition at 1000 µg/mL", "setting": "[1]; Multiplicity of infection Medium", "result": 20, "unit": "%"}, {"measurement": "Inhibition of virus replication", "setting": "[3]; HIGH M0I HSV2", "result": "++ (40% inhibition)"}, {"measurement": "inhibition at 500 µg/mL", "setting": "[3]; Human alphaherpesvirus 2, HIGH M0I HSV2", "result": 0, "unit": "%"}, {"measurement": "inhibition at 500 µg/mL", "setting": "[3]; Human alphaherpesvirus 2, INT. M0I HSV2", "result": 20, "unit": "%"}, {"measurement": "inhibition at 500 µg/mL", "setting": "[3]; Human alphaherpesvirus 2, LOW M0I HSV2", "result": 20, "unit": "%"}, {"measurement": "Inhibition of virus replication", "setting": "[3]; INT. M0I HSV2", "result": "+++ (60% inhibition)"}, {"measurement": "Inhibition of virus replication", "setting": "[3]; LOW M0I HSV2", "result": "+++ (60% inhibition)"}]}]}
